The values that follow come from US20170014417A1, “PHARMACEUTICAL ADMINISTRATION SYSTEM FOR THE TRANSDERMAL APPLICATION OF VARDENAFIL” (LIPP LIFE SCIENCES LLC, priority 2015, published 2017).

SMILES strings stand for the structures. Read-outs that look alike come from different tables or passages of the source.

For series [1] the following is noted: cited from earlier work.
Series [2] can be described thus: in vitro-permeation test through Heat Separated Human Epidermis (HSHE), Hanson Vertical Diffusion Cells. Format: in vitro ADME. Particulars: Formulation 3. The protocol:
In a 10 mL flask with a stopper, 100 mg of vardenafil (base; from LGM Pharma) and 400 mg of isopropylmyristate were mixed with 9.5 g of 2-propanol/water (70% v/v) and shaken for 10 minutes at ambient temperature to obtain the formulation below. The resulting crystal free formulation was subjected to an in vitro-permeation test through Heat Separated Human Epidermis (HSHE), which is highly predictive for in vivo-transdermal flux rates.
Permeation experiments were conducted in duplicate (using 2 cells) following a Standard Operating Procedure for using Hanson Vertical Diffusion Cells (7 mL) mounted with Heat Separated Human Epidermis, an in vitro-experiment with high predictability for transdermal in vivo-fluxes. […]
200 mg of the formulation were applied on each Heat Separated Human Epidermis. […] Samples were withdrawn at predetermined time intervals (see Tables 1 and 2 below) and subjected to HPLC quantification of vardenafil (V).
Permeation experiments were conducted following a Standard Operating Procedure for using Hanson Vertical Diffusion Cells (7 mL) mounted with Heat Separated Human Epidermis, an in vitro-experiment with high predictability for transdermal in vivo-fluxes. […] Samples were withdrawn at predetermined time intervals (see Table 3 below) and subjected to HPLC quantification of vardenafil (V). […]

The nature of series [3]: Calculation of required transdermal flux rates for the once daily treatment of erectile dysfunction (ED). Particulars: human.
The conditions of series [4]: cited from earlier work. The source holds these as a separate data set.

Consider `CCCc1nn(C)c2c(=O)[nH]c(-c3cc(S(=O)(=O)N4CCN(C)CC4)ccc3OCC)nc12` [sildenafil], for which the log partition coefficient (log P) (in general, the decadic logarithm of the partition coefficient of the neutral form, usually between octanol and water) in series [1] (Table 12) is 1.9.
For `CN1CC(=O)N2[C@H](c3ccc4c(c3)OCO4)c3[nH]c4ccccc4c3C[C@@H]2C1=O` [tadalafil], in series [1] (Table 12), the “log P” value is 1.7.
`C[C@]12CC[C@H]3[C@@H](CCC4=CC(=O)CC[C@@]43C)[C@@H]1CC[C@@H]2O` [testosterone]: the “log P” value in series [1] is 3.4.
As to `CCCc1nc(C)c2c(=O)[nH]c(-c3cc(S(=O)(=O)N4CCN(CC)CC4)ccc3OCC)nn12` [vardenafil], the “log P” value in series [1] (Table 12) and in series [1] was 1.4 each time. The “transdermal flux rate achieved (formulation)” value in series [2] worked out at 27 μg/cm^2 μg/cm^2 over 24 h. For the same compound, the “systemically available required dose for once daily treatment of ED (calculated)” value in series [3] is on record as 0.75 mg. In addition, the “calculated transdermal flux rates required to deliver systemic doses for treatment of ED upon application on 200 cm^2” value in series [3] (24 h) is given as 3.8 μg/cm^2 μg/cm^2 over 24 h. Further, the plasma half-life entry in series [4] (after oral administration) is recorded as “approximately 3 h”. Also, the “median time to reach maximum concentration in plasma” value in series [4] (oral administration, fasted state (Staxyn prescribing information)) is 1.5 h. In series [4] (upon oral dosing in man), the absolute bioavailability result was “approximately 15%”.
